≈ marks a conversion by molar mass, not a printed value. Read-outs that look alike come from different tables or passages of the source.
Experiments:
[1] = biological target: papain-like proteinase (PLpro) (Severe acute respiratory syndrome coronavirus 2, UniProt P0DTD1); experiment: Papain-like proteinase; type: biochemical, SARS-CoV2; conditions: read-out: PLpro (Inhibition %)
ACE2 protein = ACE2 protein (Homo sapiens, UniProt Q9BYF1); experiment: ACE2 binding
SARS-CoV2 = experiment: microbe, parasite or virus in culture; type: cell-based; conditions: for EC50: Severe acute respiratory syndrome coronavirus 2, Vero C1008
human red blood cells = experiment: Red blood cells toxicity; type: cell-based; conditions: Erythrocyte, 1 h, read-out: RBC IC50 (µg/ml)
[2] = test system: Peripheral blood mononuclear cells (PBMC); experiment: Peripheral blood mononuclear cells toxicity; type: cell-based; conditions: Homo sapiens, 24 h, read-out: PBMC IC50 (µg/ml)
Antioxidant activity = conditions: DPPH, 30 min in the dark
[3] = ref Zou et al. [2020], cited from earlier work
[4] = biological target: SARS-CoV2 RBD / ACE2 protein complex (Severe acute respiratory syndrome coronavirus 2, UniProt P0DTC2); experiment: Spike protein RBD-ACE2 complex formation ELISA; type: binding
SARS-CoV2 ORF gene = type: cell-based
BetaCoV E-gene = type: cell-based, SARS-CoV2
BetaCoV RdRp gene = type: cell-based, SARS-CoV2
[5] = test system: klebsila pneumonia ATCC700603; experiment: Agar well diffusion assay; type: cell-based
[6] = test system: Staphylococcus aureus ATCC25923; experiment: Agar well diffusion assay; type: cell-based
[7] = test system: Streptococcus pyogenes EMCC1772; experiment: Agar well diffusion assay; type: cell-based
Candida albicans EMCC105 [8] = experiment: Agar well diffusion assay; type: cell-based
[9] = test system: klebsila pneumonia ATCC700603; experiment: Turbidity assay; type: cell-based
[10] = test system: Staphylococcus aureus ATCC25923; experiment: Turbidity assay; type: cell-based
[11] = test system: Streptococcus pyogenes EMCC1772; experiment: Turbidity assay; type: cell-based
Candida albicans EMCC105 [12] = experiment: Turbidity assay; type: cell-based
white blood cells (WBC) = experiment: Elimination of HCQ toxicity: HCQ induced WBC cytotoxicity; type: cell-based; conditions: HCQ 200 µg/ml
red blood cells = experiment: Elimination of HCQ toxicity: HCQ induced RBC hemolysis; conditions: HCQ 27.5 µg/ml
[13] = In vivo HCQ toxicity elimination: CBC profile and blood chemistry; conditions: mice, oral

Sequence of ACE2 protein (Q9BYF1 18-805): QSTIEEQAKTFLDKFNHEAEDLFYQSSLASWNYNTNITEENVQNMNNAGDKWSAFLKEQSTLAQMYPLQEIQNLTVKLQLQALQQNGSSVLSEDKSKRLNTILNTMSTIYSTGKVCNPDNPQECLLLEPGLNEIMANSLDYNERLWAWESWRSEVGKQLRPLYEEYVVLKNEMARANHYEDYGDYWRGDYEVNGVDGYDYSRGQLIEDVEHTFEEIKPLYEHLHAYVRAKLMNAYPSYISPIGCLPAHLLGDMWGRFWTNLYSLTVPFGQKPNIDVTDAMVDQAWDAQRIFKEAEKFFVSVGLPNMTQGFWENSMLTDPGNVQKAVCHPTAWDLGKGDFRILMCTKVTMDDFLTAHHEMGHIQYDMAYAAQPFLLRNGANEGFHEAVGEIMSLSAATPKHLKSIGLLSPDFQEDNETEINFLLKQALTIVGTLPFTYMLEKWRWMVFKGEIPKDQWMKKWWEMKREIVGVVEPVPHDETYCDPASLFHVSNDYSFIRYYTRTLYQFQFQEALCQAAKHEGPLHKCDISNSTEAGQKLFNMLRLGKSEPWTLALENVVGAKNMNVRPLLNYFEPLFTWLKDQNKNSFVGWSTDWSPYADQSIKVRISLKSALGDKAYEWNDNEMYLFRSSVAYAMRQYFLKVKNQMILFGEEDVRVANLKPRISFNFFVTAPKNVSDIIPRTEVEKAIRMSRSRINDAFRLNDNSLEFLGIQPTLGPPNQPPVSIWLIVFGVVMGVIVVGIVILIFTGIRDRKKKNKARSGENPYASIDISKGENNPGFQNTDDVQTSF

CCN(CCO)CCCC(C)Nc1ccnc2cc(Cl)ccc12 (stereo not drawn) [HCQ, hydroxychloroquine]
inhibition at 12.5 µg/mL [1]: 8.1 ± 0.74% | inhibition at 25 µg/mL [1]: 11.2 ± 0.39% | inhibition at 50 µg/mL [1]: 22.5 ± 0.15% | inhibition at 100 µg/mL [1]: 30 ± 0.23% | inhibition at 200 µg/mL [1]: 37 ± 0.42% | ACE2 (Binding %) (ACE2 protein; 12.5 µg/ml): 09.02 ± 0.50% | ACE2 (Binding %) (ACE2 protein; 200 µg/ml): 15.60 ± 1.40% | EC50/IC50% (SARS-CoV2): 27.5 ± 0.9% | Vero E6 reduction (%) (SARS-CoV2): 76.00 ± 1.8% | EC50 (SARS-CoV2): 0.39 ± 0.009 µg/mL (≈ 1.16 µM) | IC50 (human red blood cells): 52 ± 0.9 µg/mL (≈ 155 µM) | IC50 [2]: 3.2 ± 0.3 µg/mL (≈ 9.53 µM) | Antioxidants IC50 (Antioxidant activity): 362.7 ± 6.7 µg/mL | oral dose reaching the blood ([3]; oral): about 50% | accumulation in brain and spinal cord tissue, times higher than plasma level [3]: 30 times | accumulation in the liver and lung, times higher than plasma concentration [3]: 700 times

COc1ccc2cc3[n+](cc2c1OC)CCc1cc2c(cc1-3)OCO2 [BER, Berberine chloride hydrate]
inhibition at 62.5 µg/mL [1]: 49.8 ± 0.19% | inhibition at 126 µg/mL [1]: 65.89 ± 0.17% | inhibition at 252 µg/mL [1]: 78.93 ± 0.36% | inhibition at 504 µg/mL [1]: 84.8 ± 0.12% | inhibition at 1008 µg/mL [1]: 93.26 ± 0.73% | Spike protein- RBD- complex formation (Fold change) ([4]; 62.5 µg/ml): 03.88 ± 0.08 Fold change | Spike protein- RBD- complex formation (Fold change) ([4]; 126 µg/ml): 08.00 ± 0.10 Fold change | Spike protein- RBD- complex formation (Fold change) ([4]; 252 µg/ml): 08.50 ± 0.00 Fold change | Spike protein- RBD- complex formation (Fold change) ([4]; 504 µg/ml): 16.13 ± 0.20 Fold change | Spike protein- RBD- complex formation (Fold change) ([4]; 1008 µg/ml): 16.13 ± 0.03 Fold change | ACE2 (Binding %) (ACE2 protein; 62.5 µg/ml): 13.10 ± 0.07% | ACE2 (Binding %) (ACE2 protein; 126 µg/ml): 13.10 ± 0.90% | ACE2 (Binding %) (ACE2 protein; 252 µg/ml): 13.90 ± 1.10% | ACE2 (Binding %) (ACE2 protein; 504 µg/ml): 15.60 ± 1.60% | ACE2 (Binding %) (ACE2 protein; 1008 µg/ml): 15.60 ± 1.10% | Vero E6 reduction (%) (SARS-CoV2): 80.00 ± 1.7% | EC50 (SARS-CoV2): 16.7 ± 0.01 µg/mL | EC50/IC50% (SARS-CoV2; antiviral EC50 relative to Vero E6 IC50): 32.9 ± 0.4% | ORF gene down regulation (%) (SARS-CoV2 ORF gene; 2.5 µg/ml): 11.73 ± 0.1% | ORF gene expression (SARS-CoV2 ORF gene; 2.5 µg/ml): 0.88 ± 0.001 | ORF gene down regulation (%) (SARS-CoV2 ORF gene; 5 µg/ml): 21.54 ± 0.2% | ORF gene expression (SARS-CoV2 ORF gene; 5 µg/ml): 0.79 ± 0.003 | ORF gene down regulation (%) (SARS-CoV2 ORF gene; 10 µg/ml): 60.22 ± 0.8% | ORF gene expression (SARS-CoV2 ORF gene; 10 µg/ml): 0.39 ± 0.002 | ORF gene down regulation (%) (SARS-CoV2 ORF gene; 20 µg/ml): 86.69 ± 0.1% | ORF gene expression (SARS-CoV2 ORF gene; 20 µg/ml): 0.13 ± 0.008 | E-gene down regulation (%) (BetaCoV E-gene; 2.5 µg/ml): 89.77 ± 3.5% | E-gene expression (BetaCoV E-gene; 2.5 µg/ml): 0.102 ± 0.0003 | E-gene down regulation (%) (BetaCoV E-gene; 5 µg/ml): 99.30 ± 1.8% | E-gene expression (BetaCoV E-gene; 5 µg/ml): 0.007 ± 0.0005 | E-gene down regulation (%) (BetaCoV E-gene; 10 µg/ml): 99.70 ± 4.5% | E-gene expression (BetaCoV E-gene; 10 µg/ml): 0.003 ± 0.0001 | E-gene down regulation (%) (BetaCoV E-gene; 20 µg/ml): 99.98 ± 3.9% | E-gene expression (BetaCoV E-gene; 20 µg/ml): 0.0002 ± 0.00001 | RdRp down regulation (%) (BetaCoV RdRp gene; 2.5 µg/ml): 76.67 ± 2.9% | RdRp expression (BetaCoV RdRp gene; 2.5 µg/ml): 0.233 ± 0.001 | RdRp down regulation (%) (BetaCoV RdRp gene; 5 µg/ml): 79.26 ± 3.5% | RdRp expression (BetaCoV RdRp gene; 5 µg/ml): 0.207 ± 0.002 | RdRp down regulation (%) (BetaCoV RdRp gene; 10 µg/ml): 94.95 ± 6.9% | RdRp expression (BetaCoV RdRp gene; 10 µg/ml): 0.050 ± 0.0003 | RdRp down regulation (%) (BetaCoV RdRp gene; 20 µg/ml): 99.89 ± 3.8% | RdRp expression (BetaCoV RdRp gene; 20 µg/ml): 0.001 ± 0.00009 | IC50 (human red blood cells): 1349 ± 10.3 µg/mL | IC50 [2]: 22.2 ± 0.9 µg/mL | MIC [5]: 1850 µg/mL | MIC [6]: 926 µg/mL | MIC [7]: 463 µg/mL | MIC (Candida albicans EMCC105 [8]): 1850 µg/mL | MIC [9]: 463 µg/mL | MIC [10]: 463 µg/mL | MIC [11]: 463 µg/mL | MIC (Candida albicans EMCC105 [12]): 463 µg/mL | prevention of HCQ cytotoxic effect towards WBC (white blood cells (WBC)): ~6.7 folds | decrease of the hemolytic activity induced by HCQ (red blood cells): 42.85% | prevention of HCQ adverse effect on co-administration with HCQ ([13]; blood chemistry): moderately prevented | effect on normal CBC parameters ([13]; p < 0.05): did not affect normal CBC parameters

Source: paper PMC8419391 (Journal of Pharmaceutical Investigation, 2021)
